Results as given in ChEMBL document CHEMBL6103639, “Structure-Based Development of 3,4-Fused Tricyclic Benzofuran Derivatives as Polyketide Synthase 13 Inhibitors with Negligible hERG Inhibition” (J Med Chem, 2025).

Tests used:
Format in all cases: functional
[1] = test system: Mycobacterium tuberculosis; experiment: Antitubercular activity against Mycobacterium tuberculosis D1644G mutant assessed as reduction in microbial growth by microplate alamar blue assay
[2] = test system: Mycobacterium tuberculosis; experiment: Antitubercular activity against Mycobacterium tuberculosis N1640K mutant assessed as reduction in microbial growth by microplate alamar blue assay
[3] = test system: Mycobacterium tuberculosis; experiment: Antitubercular activity against Mycobacterium tuberculosis N1640S mutant assessed as reduction in microbial growth by microplate alamar blue assay
[4] = test system: Mycobacterium tuberculosis; experiment: Antitubercular activity against Mycobacterium tuberculosis A1667V mutant assessed as reduction in microbial growth by microplate alamar blue assay

Row | SMILES | MIC [1] | MIC [2] | MIC [3] | MIC [4]
1 | CN1CN(CC2CC2)Cc2c(O)ccc3oc(-c4ccc(O)cc4)c(c23)C1=O | >64 µg/mL | >64 µg/mL | >64 µg/mL | >64 µg/mL
2 | CN1CN(C2CCCC2)Cc2c(O)ccc3oc(-c4ccc(O)cc4)c(c23)C1=O | >64 µg/mL | >64 µg/mL | >64 µg/mL | 32 µg/mL
3 | CN1CN(CC2CCC2)Cc2c(O)ccc3oc(-c4ccc(O)cc4)c(c23)C1=O | >64 µg/mL | >64 µg/mL | >64 µg/mL | 8 µg/mL
